Test results reported in ChEMBL document CHEMBL2157998, “Synthesis and biological evaluation of new phenothiazine derivatives bearing a pyrazole unit as protein farnesyltransferase inhibitors” (Bioorg Med Chem Lett, 2012).
Activity calls are given as the source filed them. The rule behind the calls is not given here.

Tests used:
[1] = target: T1, Protein farnesyltransferase (Homo sapiens, UniProt P49354+P49356); test: Inhibition of recombinant human FTase using dansyl-GCVLS as substrate at 100 uM after 15 mins by fluorimetric analysis; format: protein-complex assay
CCRF-CEM = test: Growth inhibition of human CCRF-CEM cells at 10 uM after 48 hrs by single dose SRB assay; format: functional
HL-60(TB) = test: Growth inhibition of human HL-60(TB) cells at 10 uM after 48 hrs by single dose SRB assay; format: functional; details: HL-60, 48 h, read-out: GI
MOLT-4 = test: Growth inhibition of human MOLT4 cells at 10 uM after 48 hrs by single dose SRB assay; format: functional; details: MOLT-4, 48 h, read-out: GI
RPMI-8226 = test: Growth inhibition of human RPMI8226 cells at 10 uM after 48 hrs by single dose SRB assay; format: functional
SF-295 = test: Growth inhibition of human SF295 cells at 10 uM after 48 hrs by single dose SRB assay; format: functional; details: for inhibition of growth at 10 µM: SF-295, 48 h, read-out: GI
SNB-19 = test: Growth inhibition of human SNB19 cells at 10 uM after 48 hrs by single dose SRB assay; format: functional
U-251 = test: Growth inhibition of human U251 cells at 10 uM after 48 hrs by single dose SRB assay; format: functional
HCT166 = test: Growth inhibition of human […] cells at 10 uM after 48 hrs by single dose SRB assay; format: functional
HCT-15 = test: Growth inhibition of human HCT15 cells at 10 uM after 48 hrs by single dose SRB assay; format: functional
HT-29 = test: Growth inhibition of human HT-29 cells at 10 uM after 48 hrs by single dose SRB assay; format: functional
SW-620 = test: Growth inhibition of human SW620 cells at 10 uM after 48 hrs by single dose SRB assay; format: functional
EKVX = test: Growth inhibition of human EKVX cells at 10 uM after 48 hrs by single dose SRB assay; format: functional; details: for inhibition of growth at 10 µM: read-out: GI
NCI-H226 = test: Growth inhibition of human NCI-H226 cells at 10 uM after 48 hrs by single dose SRB assay; format: functional; details: for inhibition of growth at 10 µM: NCI-H226, 48 h, read-out: GI
HOP-92 = test: Growth inhibition of human HOP92 cells at 10 uM after 48 hrs by single dose SRB assay; format: functional; details: for inhibition of growth at 10 µM: HOP-92, 48 h, read-out: GI
NCI-H522 = test: Growth inhibition of human NCI-H522 cells at 10 uM after 48 hrs by single dose SRB assay; format: functional
LOX IMVI = test: Growth inhibition of human LOXIMVI cells at 10 uM after 48 hrs by single dose SRB assay; format: functional
SK-MEL-5 = test: Growth inhibition of human SK-MEL-5 cells at 10 uM after 48 hrs by single dose SRB assay; format: functional
UACC-62 = test: Growth inhibition of human UACC62 cells at 10 uM after 48 hrs by single dose SRB assay; format: functional
ACHN = test: Growth inhibition of human ACHN cells at 10 uM after 48 hrs by single dose SRB assay; format: functional
SN12C = test: Growth inhibition of human SN12C cells at 10 uM after 48 hrs by single dose SRB assay; format: functional
A498 = test: Growth inhibition of human A498 cells at 10 uM after 48 hrs by single dose SRB assay; format: functional; details: A498, 48 h, read-out: GI
CAKI-1 = test: Growth inhibition of human Caki1 cells at 10 uM after 48 hrs by single dose SRB assay; format: functional; details: for inhibition of growth at 10 µM: CAKI-1, 48 h, read-out: GI
UO-31 = test: Growth inhibition of human UO31 cells at 10 uM after 48 hrs by single dose SRB assay; format: functional; details: UO-31, 48 h, read-out: GI
OVCAR-3 = test: Growth inhibition of human OVCAR3 cells at 10 uM after 48 hrs by single dose SRB assay; format: functional
OVCAR-8 = test: Growth inhibition of human OVCAR8 cells at 10 uM after 48 hrs by single dose SRB assay; format: functional; details: for inhibition of growth at 10 µM: OVCAR-8, 48 h, read-out: GI
NCI/ADR-RES = test: Growth inhibition of human NCI/ADR-RES cells at 10 uM after 48 hrs by single dose SRB assay; format: functional
PC-3 = test: Growth inhibition of human PC3 cells at 10 uM after 48 hrs by single dose SRB assay; format: functional; details: PC-3, 48 h, read-out: GI
MDA-MB-231 = test: Growth inhibition of human MDA-MB-231 cells at 10 uM after 48 hrs by single dose SRB assay; format: functional
MDA-MB-468 = test: Growth inhibition of human MDA-MB-468 cells at 10 uM after 48 hrs by single dose SRB assay; format: functional; details: for inhibition of growth at 10 µM: MDA-MB-468, 48 h, read-out: GI
[2] = target: T1, Protein farnesyltransferase; test: Inhibition of recombinant human FTase using dansyl-GCVLS as substrate after 15 mins by fluorimetric analysis; format: protein-complex assay

Row | SMILES | inhibition [1] | growth inhibition (GI) (CCRF-CEM) | inhibition of growth at 10 µM (HL-60(TB)) | growth inhibition (GI) (RPMI-8226) | growth inhibition (GI) (SNB-19) | growth inhibition (GI) (HCT166) | growth inhibition (GI) (SW-620) | growth inhibition (GI) (LOX IMVI) | growth inhibition (GI) (ACHN) | inhibition of growth at 10 µM (A498) | inhibition of growth at 10 µM (UO-31) | growth inhibition (GI) (OVCAR-3) | growth inhibition (GI) (NCI/ADR-RES) | inhibition of growth at 10 µM (PC-3) | growth inhibition (GI) (MDA-MB-231) | also measured
1 | Cc1cc(-c2ccccc2)n(C(=O)CN2c3ccccc3Sc3ccccc32)n1 | 0% | inactive | 31.5% | inactive | inactive | inactive | inactive | inactive | inactive | 17.3% | 9% | inactive | inactive | 13% | inactive | inhibition of growth at 10 µM (MOLT-4): 9.6%; growth inhibition (GI) (SF-295): inactive; inhibition of growth at 10 µM (U-251; U-251, 48 h, read-out: GI): 9.2%; growth inhibition (GI) (HCT-15): inactive; growth inhibition (GI) (HT-29): inactive; inhibition of growth at 10 µM (EKVX): 5%; inhibition of growth at 10 µM (NCI-H226): 7.2%; inhibition of growth at 10 µM (HOP-92): 14%; growth inhibition (GI) (NCI-H522): inactive; growth inhibition (GI) (SK-MEL-5): inactive; growth inhibition (GI) (UACC-62): inactive; inhibition of growth at 10 µM (SN12C; read-out: GI): 7.2%; inhibition of growth at 10 µM (CAKI-1): 16.2%; inhibition of growth at 10 µM (OVCAR-8): 6.3%; growth inhibition (GI) (MDA-MB-468): inactive
2 | CCOC(=O)c1cnn(CC(=O)N2c3ccccc3Sc3ccccc32)c1N | 24.8% | inactive | 83.2% | inactive | inactive | inactive | inactive | inactive | inactive | 11.8% | 13.3% | inactive | inactive | 21.3% | inactive | inhibition of growth at 10 µM (MOLT-4): 7.6%; inhibition of growth at 10 µM (SF-295): 6.7%; growth inhibition (GI) (U-251): inactive; inhibition of growth at 10 µM (HCT-15; HCT-15, 48 h, read-out: GI): 25.4%; inhibition of growth at 10 µM (HT-29; HT-29, 48 h, read-out: GI): 13.2%; inhibition of growth at 10 µM (EKVX): 5.3%; inhibition of growth at 10 µM (NCI-H226): 8.1%; growth inhibition (GI) (HOP-92): inactive; inhibition of growth at 10 µM (NCI-H522; NCI-H522, 48 h, read-out: GI): 31.9%; inhibition of growth at 10 µM (SK-MEL-5; SK-MEL-5, 48 h, read-out: GI): 6.9%; inhibition of growth at 10 µM (UACC-62; UACC-62, 48 h, read-out: GI): 6.3%; growth inhibition (GI) (SN12C): inactive; inhibition of growth at 10 µM (CAKI-1): 16%; growth inhibition (GI) (OVCAR-8): inactive; inhibition of growth at 10 µM (MDA-MB-468): 15.3%
3 | Cc1c2c(nn1C(=O)CCN1c3ccccc3Sc3ccccc31)CCCC2=O | 19.5% | – | – | – | – | – | – | – | – | – | – | – | – | – | – | –
4 | C/C(=N\NC(=O)CCN1c2ccccc2Sc2ccccc21)C1=C(O)c2ccccc2C1=O | 95.5% | – | – | – | – | – | – | – | – | – | – | – | – | – | – | IC50 [2]: 3.73 µM
5 | Cc1c2c(nn1CC(=O)N1c3ccccc3Sc3ccccc31)CCCC2=O | 46.6% | – | – | – | – | – | – | – | – | – | – | – | – | – | – | –
6 | N#Cc1cnn(CC(=O)N2c3ccccc3Sc3ccccc32)c1N | 94.9% | inactive | 46.2% | inactive | inactive | inactive | inactive | inactive | inactive | 14% | 6.4% | inactive | inactive | 9.9% | inactive | IC50 [2]: 17.2 µM; inhibition of growth at 10 µM (SF-295): 13.1%; growth inhibition (GI) (U-251): inactive; growth inhibition (GI) (HCT-15): inactive; growth inhibition (GI) (HT-29): inactive; growth inhibition (GI) (EKVX): inactive; growth inhibition (GI) (NCI-H226): inactive; inhibition of growth at 10 µM (HOP-92): 12.5%; growth inhibition (GI) (NCI-H522): inactive; growth inhibition (GI) (SK-MEL-5): inactive; growth inhibition (GI) (UACC-62): inactive; growth inhibition (GI) (SN12C): inactive; growth inhibition (GI) (CAKI-1): inactive; inhibition of growth at 10 µM (OVCAR-8): 5.5%; inhibition of growth at 10 µM (MDA-MB-468): 11.7%
7 | CCOC(=O)c1cc(-c2ccccc2)n(CC(=O)N2c3ccccc3Sc3ccccc32)n1 | 0% | – | – | – | – | – | – | – | – | – | – | – | – | – | – | –
8 | CCOC(=O)c1cc(-c2ccccc2)nn1CC(=O)N1c2ccccc2Sc2ccccc21 | 0% | – | – | – | – | – | – | – | – | – | – | – | – | – | – | –
9 | Cc1cc(C)n(CC(=O)N2c3ccccc3Sc3ccccc32)n1 | 22.4% | – | – | – | – | – | – | – | – | – | – | – | – | – | – | –
